Data: ChEMBL document CHEMBL4376896, “Synthesis of Novel Potent Archazolids: Pharmacology of an Emerging Class of Anticancer Drugs” (J Med Chem, 2020)
Converted amounts (≈) assume the structure as drawn. The source made the active and inactive calls. The rule behind the calls is not given here.

Columns and labels:
[1] = Intrinsic clearance in CD1 mouse liver microsomes at 1 uM; assay type: ADME, Microsome; conditions: read-out: CLH
[2] = Intrinsic clearance in Sprague-Dawley rat liver microsomes at 1 uM; assay type: ADME, Microsome; conditions: read-out: CLH
[3] = target: T1, P2X purinoceptor 3 (Homo sapiens, UniProt P56373); test: Inhibition of human P2X3 assessed as reduction in agonist-induced intracellular Ca2+ concentration pre-incubated for 30 mins before agonist addition by calcium 5 dye based fluorescence assay; assay type: cell-based
T1 sequence (P56373 whole entry): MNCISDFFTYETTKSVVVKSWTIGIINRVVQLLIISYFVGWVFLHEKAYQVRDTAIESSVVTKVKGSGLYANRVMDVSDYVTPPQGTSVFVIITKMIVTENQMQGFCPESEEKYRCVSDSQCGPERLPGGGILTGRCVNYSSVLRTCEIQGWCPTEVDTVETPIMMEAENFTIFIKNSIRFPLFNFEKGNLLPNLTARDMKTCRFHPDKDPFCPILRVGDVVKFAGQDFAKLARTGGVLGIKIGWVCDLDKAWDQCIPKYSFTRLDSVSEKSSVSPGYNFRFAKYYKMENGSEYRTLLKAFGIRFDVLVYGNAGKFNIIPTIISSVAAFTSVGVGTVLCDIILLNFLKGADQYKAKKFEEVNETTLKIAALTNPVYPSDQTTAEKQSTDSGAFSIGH

[4] = target: T2, Adenosine receptor A3 (Homo sapiens, UniProt P0DMS8); test: Displacement of [3H]PSB-11 from human A3 adenosine receptor expressed in CHO cell membranes incubated for 60 mins by liquid scintillation counting method
T2 sequence (P0DMS8 whole entry): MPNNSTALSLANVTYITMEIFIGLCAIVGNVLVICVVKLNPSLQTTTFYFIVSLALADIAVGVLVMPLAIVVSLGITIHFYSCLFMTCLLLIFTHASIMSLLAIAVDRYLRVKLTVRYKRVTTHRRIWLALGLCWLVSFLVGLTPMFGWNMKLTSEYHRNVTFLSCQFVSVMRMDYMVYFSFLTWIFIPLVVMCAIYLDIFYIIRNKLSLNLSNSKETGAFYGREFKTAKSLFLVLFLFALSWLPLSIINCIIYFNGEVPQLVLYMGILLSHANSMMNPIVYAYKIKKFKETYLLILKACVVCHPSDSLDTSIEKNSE

[5] = target: T3, Neutrophil elastase (Homo sapiens, UniProt P08246); test: Inhibition of human leukocyte elastase assessed as reduction in pNA release using chromogenic MeO-Suc-Ala-Ala-Pro-Val-pNA substrate measured over 10 mins by spectrophotometry; conditions: read-out: IC50
T3 sequence (P08246 whole entry): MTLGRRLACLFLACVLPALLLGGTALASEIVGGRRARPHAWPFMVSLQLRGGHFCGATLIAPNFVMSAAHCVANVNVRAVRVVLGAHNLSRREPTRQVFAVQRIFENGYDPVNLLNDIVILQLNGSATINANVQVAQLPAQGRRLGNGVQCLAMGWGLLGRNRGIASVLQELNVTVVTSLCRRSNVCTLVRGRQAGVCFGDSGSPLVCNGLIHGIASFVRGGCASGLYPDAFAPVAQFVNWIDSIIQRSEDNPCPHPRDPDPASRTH

[6] = target: P2X purinoceptor 3 (Homo sapiens) (UniProt P56373); test: Inhibition of human P2X3 expressed in human 1321N1 cell membranes assessed as reduction in ATP-induced inhibition of [35S]ATPgammaS binding at 1 pm to 10 mM
[7] = target: Trypsin (Homo sapiens) (UniProt P07477+P07478+P35030); test: Inhibition of trypsin (unknown origin) assessed as reduction in pNA release using chromogenic Suc-Ala-Ala-Pro-Arg-pNA substrate measured over 10 mins by spectrophotometry; assay type: protein assay
[8] = target: Cathepsin B (Homo sapiens) (UniProt P07858); test: Inhibition of cathepsin B (unknown origin) assessed as reduction in pNA release using chromogenic Z-Arg-Arg-pNA substrate measured over 1 hr by spectrophotometry
[9] = target: Procathepsin L (Homo sapiens) (UniProt P07711); test: Inhibition of cathepsin L (unknown origin) assessed as reduction in pNA release using chromogenic Z-Phe-Arg-pNA substrate measured over 1 hr by spectrophotometry
Procathepsin L (Homo sapiens), sequence (P07711 114-333 limits assumed): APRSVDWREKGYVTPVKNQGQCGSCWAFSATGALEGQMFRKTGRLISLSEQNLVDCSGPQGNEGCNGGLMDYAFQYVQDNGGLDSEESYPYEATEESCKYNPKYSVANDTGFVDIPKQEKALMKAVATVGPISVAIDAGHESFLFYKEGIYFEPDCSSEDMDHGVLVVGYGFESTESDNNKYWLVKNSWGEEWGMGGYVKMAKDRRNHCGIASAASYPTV

[10] = target: Chymotrypsin (Homo sapiens) (UniProt Q99895+P17538+P40313+Q6GPI1); test: Inhibition of chymotrypsin (unknown origin) assessed as reduction in pNA release using chromogenic Suc-Ala-Ala-Pro-Phe-pNA substrate measured over 12.5 mins by spectrophotometry; assay type: protein assay
[11] = Intrinsic clearance in human liver microsomes at 1 uM; assay type: ADME, Microsome; conditions: read-out: CLH
[12] = Half life in CD1 mouse liver microsomes at 1 uM; assay type: ADME, Microsome
[13] = Half life in Sprague-Dawley rat liver microsomes at 1 uM; assay type: ADME, Microsome
[14] = Half life in human liver microsomes at 1 uM; assay type: ADME, Microsome
[15] = Stability in CD1 mouse liver microsomes assessed as drug degradation at 1 uM measured within 15 mins; assay type: ADME, Microsome; conditions: read-out: Drug degradation
[16] = Stability in Sprague-Dawley rat liver microsomes assessed as drug degradation at 1 uM measured within 15 mins; assay type: ADME, Microsome; conditions: read-out: Drug degradation
[17] = Stability in human liver microsomes assessed as drug degradation at 1 uM measured within 15 mins; assay type: ADME, Microsome; conditions: read-out: Drug degradation
[18] = Kinetic aqueous solubility of the compound; assay type: physicochemical; conditions: buffer; read-out: Kinetic_solubility
[19] = Permeability in human Caco2 cells at 10 uM; assay type: ADME, cell-based; conditions: caco-2, 10 µM
[20] = target: Cytochrome P450 1A2 (Homo sapiens, UniProt P05177); test: Inhibition of recombinant human CYP1A2 at 100 nM; assay type: ADME; conditions: recombinant enzyme, 0.1 µM
Cytochrome P450 1A2, sequence (P05177 whole entry): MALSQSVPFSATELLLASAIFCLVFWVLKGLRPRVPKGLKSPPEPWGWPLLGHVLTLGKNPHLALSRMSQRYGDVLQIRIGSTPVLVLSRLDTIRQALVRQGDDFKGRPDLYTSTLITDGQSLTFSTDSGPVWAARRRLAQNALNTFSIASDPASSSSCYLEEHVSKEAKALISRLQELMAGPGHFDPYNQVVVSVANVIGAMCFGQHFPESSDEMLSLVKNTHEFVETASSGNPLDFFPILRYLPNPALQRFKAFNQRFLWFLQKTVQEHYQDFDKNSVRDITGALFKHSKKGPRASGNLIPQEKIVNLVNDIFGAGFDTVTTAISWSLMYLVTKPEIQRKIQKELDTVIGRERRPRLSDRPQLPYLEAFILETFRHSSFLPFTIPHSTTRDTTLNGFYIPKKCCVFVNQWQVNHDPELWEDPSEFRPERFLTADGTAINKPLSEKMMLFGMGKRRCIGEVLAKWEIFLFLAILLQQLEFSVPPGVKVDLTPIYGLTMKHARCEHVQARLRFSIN

[21] = target: Cytochrome P450 2B6 (Homo sapiens, UniProt P20813); test: Inhibition of recombinant human CYP2B6 at 100 nM; assay type: ADME; conditions: recombinant enzyme, 0.1 µM
Cytochrome P450 2B6, sequence (P20813 whole entry): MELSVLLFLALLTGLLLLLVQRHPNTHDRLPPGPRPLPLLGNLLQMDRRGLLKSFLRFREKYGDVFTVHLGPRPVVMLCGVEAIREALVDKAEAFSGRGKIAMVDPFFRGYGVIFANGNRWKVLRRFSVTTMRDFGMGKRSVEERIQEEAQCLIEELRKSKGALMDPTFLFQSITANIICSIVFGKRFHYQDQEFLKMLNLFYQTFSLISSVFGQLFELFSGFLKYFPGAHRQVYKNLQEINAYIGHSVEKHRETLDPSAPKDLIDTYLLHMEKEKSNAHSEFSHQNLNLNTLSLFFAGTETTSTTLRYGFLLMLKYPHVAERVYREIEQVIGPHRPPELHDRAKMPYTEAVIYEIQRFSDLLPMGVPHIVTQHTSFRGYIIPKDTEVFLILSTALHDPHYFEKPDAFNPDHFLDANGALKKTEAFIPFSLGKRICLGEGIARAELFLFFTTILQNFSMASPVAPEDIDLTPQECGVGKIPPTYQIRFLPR

[22] = target: T4, Cytochrome P450 2C9 (Homo sapiens, UniProt P11712); test: Inhibition of recombinant human CYP2C9 at 100 nM; assay type: ADME; conditions: recombinant enzyme, 0.1 µM
T4 sequence (P11712 whole entry): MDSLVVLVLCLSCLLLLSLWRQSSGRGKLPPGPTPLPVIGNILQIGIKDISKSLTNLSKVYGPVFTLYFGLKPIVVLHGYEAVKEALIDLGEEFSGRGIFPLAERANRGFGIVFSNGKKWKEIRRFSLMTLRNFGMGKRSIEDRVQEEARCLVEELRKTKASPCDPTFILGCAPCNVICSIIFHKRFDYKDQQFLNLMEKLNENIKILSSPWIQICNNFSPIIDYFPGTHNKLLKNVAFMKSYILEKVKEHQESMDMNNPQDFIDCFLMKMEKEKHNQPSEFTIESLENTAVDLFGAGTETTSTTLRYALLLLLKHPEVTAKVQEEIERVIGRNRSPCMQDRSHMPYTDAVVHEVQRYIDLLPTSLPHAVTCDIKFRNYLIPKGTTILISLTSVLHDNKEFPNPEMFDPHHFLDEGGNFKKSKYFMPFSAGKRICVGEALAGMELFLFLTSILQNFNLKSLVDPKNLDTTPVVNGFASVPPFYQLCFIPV

[23] = target: T5, Cytochrome P450 2C19 (Homo sapiens, UniProt P33261); test: Inhibition of recombinant human CYP2C19 at 100 nM; assay type: ADME; conditions: recombinant enzyme, 0.1 µM
T5 sequence (P33261 whole entry): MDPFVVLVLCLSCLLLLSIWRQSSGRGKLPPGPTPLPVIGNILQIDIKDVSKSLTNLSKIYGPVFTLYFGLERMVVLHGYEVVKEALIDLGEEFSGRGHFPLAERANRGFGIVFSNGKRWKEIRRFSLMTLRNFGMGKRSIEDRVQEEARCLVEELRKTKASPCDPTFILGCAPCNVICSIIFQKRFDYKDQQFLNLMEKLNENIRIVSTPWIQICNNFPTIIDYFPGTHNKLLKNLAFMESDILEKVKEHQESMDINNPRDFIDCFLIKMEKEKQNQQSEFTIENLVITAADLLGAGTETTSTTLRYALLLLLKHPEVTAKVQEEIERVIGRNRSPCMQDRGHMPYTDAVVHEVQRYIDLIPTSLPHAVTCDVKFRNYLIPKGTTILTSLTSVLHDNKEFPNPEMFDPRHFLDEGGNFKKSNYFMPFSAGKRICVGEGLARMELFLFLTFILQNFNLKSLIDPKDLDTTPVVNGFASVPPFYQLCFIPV

[24] = target: Cytochrome P450 2D6 (Homo sapiens, UniProt P10635); test: Inhibition of recombinant human CYP2D6 at 100 nM; assay type: ADME; conditions: recombinant enzyme, 0.1 µM
Cytochrome P450 2D6, sequence (P10635 whole entry): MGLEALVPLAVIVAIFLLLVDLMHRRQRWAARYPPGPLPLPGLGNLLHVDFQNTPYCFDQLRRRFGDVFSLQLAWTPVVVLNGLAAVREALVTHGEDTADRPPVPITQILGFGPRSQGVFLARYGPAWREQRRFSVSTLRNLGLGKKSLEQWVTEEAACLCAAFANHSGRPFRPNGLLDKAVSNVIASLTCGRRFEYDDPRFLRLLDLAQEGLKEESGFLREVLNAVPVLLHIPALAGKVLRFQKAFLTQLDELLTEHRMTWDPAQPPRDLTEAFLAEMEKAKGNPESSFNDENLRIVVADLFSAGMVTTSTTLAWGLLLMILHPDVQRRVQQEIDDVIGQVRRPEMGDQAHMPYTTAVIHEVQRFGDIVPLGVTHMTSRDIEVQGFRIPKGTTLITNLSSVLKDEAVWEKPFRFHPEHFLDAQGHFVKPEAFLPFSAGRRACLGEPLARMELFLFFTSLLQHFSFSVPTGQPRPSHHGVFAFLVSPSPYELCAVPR

[25] = target: T6, Cytochrome P450 3A4 (Homo sapiens, UniProt P08684); test: Inhibition of recombinant human CYP3A4 at 100 nM; assay type: ADME; conditions: recombinant enzyme, 0.1 µM
T6 sequence (P08684 whole entry): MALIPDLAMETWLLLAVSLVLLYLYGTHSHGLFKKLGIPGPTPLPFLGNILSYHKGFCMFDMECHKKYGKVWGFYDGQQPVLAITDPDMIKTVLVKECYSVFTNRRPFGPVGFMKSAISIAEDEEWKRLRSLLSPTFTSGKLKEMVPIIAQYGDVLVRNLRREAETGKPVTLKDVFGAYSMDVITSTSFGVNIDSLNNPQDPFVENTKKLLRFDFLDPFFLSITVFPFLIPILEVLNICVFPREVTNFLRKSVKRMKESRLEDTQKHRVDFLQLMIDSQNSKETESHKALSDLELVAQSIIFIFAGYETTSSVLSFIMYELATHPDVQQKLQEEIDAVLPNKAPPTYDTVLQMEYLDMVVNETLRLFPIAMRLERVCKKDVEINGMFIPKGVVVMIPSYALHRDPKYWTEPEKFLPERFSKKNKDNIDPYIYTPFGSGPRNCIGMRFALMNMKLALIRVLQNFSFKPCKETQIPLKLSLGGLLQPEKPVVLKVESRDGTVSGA

[26] = target: T4, Cytochrome P450 2C9; test: Inhibition of recombinant human CYP2C9 at 1 uM; assay type: ADME; conditions: recombinant enzyme
[27] = target: T5, Cytochrome P450 2C19; test: Inhibition of recombinant human CYP2C19 at 1 uM; assay type: ADME; conditions: recombinant enzyme
[28] = target: T6, Cytochrome P450 3A4; test: Inhibition of recombinant human CYP3A4 at 1 uM; assay type: ADME; conditions: recombinant enzyme
[29] = cells; conditions: Homo sapiens, 1321-N1, 72 h
Description: Growth inhibition of human 1321N1 cells incubated for 72 hrs by MTT assay

With `CNC(=O)O[C@@H](CC(C)C)c1nc([C@H]2OC(=O)/C=C/C/C(C)=C/[C@@H](O)[C@@H](C)\C=C(C)/C=C(C)\C=C\[C@@H](O)[C@H](C)[C@H](OC)/C(C)=C/C=C/[C@@H]2C)cs1` [ARCHAZOLID B] the microsomal CLint at 1 µM [1] was 495 µL/min/mg, the microsomal CLint at 1 µM [2] was 301 µL/min/mg and the IC50 [3] was 353 nM. For the same molecule, the Ki [4] was 1180 nM, the IC50 [5] was 316 nM and the inhibition [6] was “inactive”. For the same molecule, the inhibition [7] was “inactive”, the inhibition [8] was “inactive” and the inhibition [9] was “inactive”. For the same molecule, the inhibition [10] was “inactive”, the microsomal CLint at 1 µM [11] was 533 µL/min/mg and the half-life at 1 µM [12] was 2.8 min. The half-life at 1 µM [13] was 4.6 min, the half-life at 1 µM [14] was 2.6 min and the metabolised at 0.25 h, 1 µM [15] was 100%. The metabolised at 0.25 h, 1 µM [16] was 100%, the metabolised at 0.25 h, 1 µM [17] was 100% and the solubility kinetic [18] was 1.6 µM (≈ 1.16 µg/mL). For the same molecule, the permeability [19] was “Impermeable”, the “inhibition (INH)” value [20] was “Active” and the “inhibition (INH)” value [21] was “Active”. For the same molecule, the “inhibition (INH)” value [22] was “Active”, the “inhibition (INH)” value [23] was “Active” and the “inhibition (INH)” value [24] was “Active”. For the same molecule, the “inhibition (INH)” value [25] was “Active”, the “inhibition (INH)” value [26] was “Active” and the “inhibition (INH)” value [27] was “Active”. For the same molecule, the “inhibition (INH)” value [28] was “Active” and the IC50 [29] was 0.145 nM.
